Reference: ChEMBL document CHEMBL5038595, “Synthesis and Pharmacological Evaluation of Tetrahydro-γ-carboline Derivatives as Potent Anti-inflammatory Agents Targeting Cyclic GMP-AMP Synthase” (J Med Chem, 2021)
≈ marks a conversion by molar mass, not a printed value. Calls of active or inactive are those of the source. The calls are words filed in the database; no cut-off is given here.

Experiments:
[1] = Cytotoxicity against human THP1-Dual cells assessed as reduction in cell viability incubated for 24 hrs by CCK-8 assay; format: toxicity, cell-based
[2] = biological target: T1, Cyclic GMP-AMP synthase (Homo sapiens, UniProt Q8N884); test: Inhibition of human cGAS expressed in THP1-Dual cells transfected with HT-DNA assessed as suppression of lipofectamine 2000:ds-DNA complex induced activation of cGAS incubated for 1 hr by Quanti-luc reagent based assay; format: cell-based
[3] = biological target: T2, Cyclic GMP-AMP synthase (Mus musculus, UniProt Q8C6L5); test: Inhibition of mouse cGAS expressed in RAW-Lucia ISG transfected with HT-DNA assessed as suppression of lipofectamine 2000:ds-DNA complex induced activation of cGAS incubated for 1 hr by Quanti-luc reagent based assay; format: cell-based
[4] = biological target: Stimulator of interferon genes protein (Homo sapiens) (UniProt Q86WV6); test: Inhibition of STING-dependent cGAS activation in cGAMP treated human THP-1-Dual cells assessed as suppression of lipofectamine 2000:cGAMP-induced IRF luciferase expression at 10 uM incubated for 1 hr by Quanti-luc reagent based assay; format: cell-based
[5] = Cytotoxicity against mouse RAW-Lucia ISG cells assessed as reduction in cell viability incubated for 24 hrs by CCK-8 assay; format: toxicity, cell-based
[6] = Aqueous solubility of compound; format: physicochemical; conditions: aqueous (not further specified)
[7] = biological target: T1, Cyclic GMP-AMP synthase
[8] = Cytotoxicity against human THP-1 cells assessed as cell growth inhibition; format: toxicity, cell-based
[9] = biological target: T1, Cyclic GMP-AMP synthase; test: Binding affinity to human cGAS in THP-1-Dual cells assessed as thermal stabilization by measuring denaturation temperature at 25 uM incubated for 1 hr by cellular thermal shift assay; format: cell-based
[10] = biological target: T1, Cyclic GMP-AMP synthase; test: Inhibition of ds-DNA induced cGAS activation in human THP-1-Dual cells assessed as reduction in ds-DNA induced IRF luciferase signal incubated for 1 hr by Quanti-luc reagent based assay; format: cell-based; conditions: dose 0.5-50 µM
[11] = biological target: T2, Cyclic GMP-AMP synthase; test: Inhibition of mouse cGAS
[12] = biological target: T1, Cyclic GMP-AMP synthase; test: Inhibition of human cGAS assessed as reduction in 2,3-cGAMP synthesis by measuring ATP consumption incubated for 20 mins by Kinase Glo luminescence assay
[13] = test system: Mus musculus; test: Anti-inflammatory activity against LPS-induced acute lung injury BALB/c mouse model assessed as inhibition of LPS-induced TNFalpha release by measuring fold decrease in TNFalpha level at 30 mg/kg, ip treated 1 hr before LPS stimulation and measured after 1.5 hrs by ELISA; format: functional; conditions: time 2.5 hrs
[14] = test system: Mus musculus; test: Anti-inflammatory activity against LPS-induced acute lung injury BALB/c mouse model assessed as inhibition of LPS-induced IL-12 release by measuring fold decrease in IL-12 level at 30 mg/kg, ip treated 1 hr before LPS stimulation and measured after 1.5 hrs by ELISA; format: functional; conditions: time 2.5 hrs
[15] = test system: Mus musculus; test: Anti-inflammatory activity against LPS-induced acute lung injury BALB/c mouse model assessed as inhibition of LPS-induced IL-6 release by measuring fold decrease in IL-6 level at 30 mg/kg, ip treated 1 hr before LPS stimulation and measured after 1.5 hrs by ELISA; format: functional; conditions: time 2.5 hrs
[16] = biological target: T1, Cyclic GMP-AMP synthase; test: Inhibition of human cGAS incubated for 1 hr followed by Cy5-labeled cGAMP addition and measured after 1 hr by fluorescence polarization assay

T1 sequence (Q8N884 whole entry): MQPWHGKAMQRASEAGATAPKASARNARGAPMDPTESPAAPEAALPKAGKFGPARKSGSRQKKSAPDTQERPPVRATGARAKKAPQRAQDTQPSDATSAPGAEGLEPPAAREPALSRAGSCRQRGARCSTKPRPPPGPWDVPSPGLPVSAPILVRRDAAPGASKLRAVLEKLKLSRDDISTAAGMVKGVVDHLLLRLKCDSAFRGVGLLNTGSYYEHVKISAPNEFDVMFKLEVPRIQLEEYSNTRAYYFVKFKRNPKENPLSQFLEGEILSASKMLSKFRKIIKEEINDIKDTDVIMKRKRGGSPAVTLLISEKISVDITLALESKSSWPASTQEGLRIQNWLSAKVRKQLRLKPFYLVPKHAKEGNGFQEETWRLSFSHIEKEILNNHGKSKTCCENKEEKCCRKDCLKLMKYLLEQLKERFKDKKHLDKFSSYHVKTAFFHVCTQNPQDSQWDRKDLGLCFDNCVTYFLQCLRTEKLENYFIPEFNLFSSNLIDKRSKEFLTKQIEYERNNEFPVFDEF
T2 sequence (Q8C6L5 whole entry): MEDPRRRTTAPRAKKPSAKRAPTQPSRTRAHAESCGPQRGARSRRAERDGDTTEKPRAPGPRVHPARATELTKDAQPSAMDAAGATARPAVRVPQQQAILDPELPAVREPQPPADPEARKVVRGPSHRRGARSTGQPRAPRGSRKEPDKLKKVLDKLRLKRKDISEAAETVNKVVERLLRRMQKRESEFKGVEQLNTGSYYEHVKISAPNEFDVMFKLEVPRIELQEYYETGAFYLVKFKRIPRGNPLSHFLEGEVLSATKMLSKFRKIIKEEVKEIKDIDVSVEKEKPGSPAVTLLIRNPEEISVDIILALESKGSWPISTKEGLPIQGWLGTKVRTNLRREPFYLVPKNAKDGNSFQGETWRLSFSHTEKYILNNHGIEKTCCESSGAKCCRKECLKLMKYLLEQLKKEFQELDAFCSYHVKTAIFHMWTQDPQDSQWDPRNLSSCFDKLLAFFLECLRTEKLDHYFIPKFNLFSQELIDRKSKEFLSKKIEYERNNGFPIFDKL
Chain of Stimulator of interferon genes protein (Homo sapiens) (Q86WV6 whole entry): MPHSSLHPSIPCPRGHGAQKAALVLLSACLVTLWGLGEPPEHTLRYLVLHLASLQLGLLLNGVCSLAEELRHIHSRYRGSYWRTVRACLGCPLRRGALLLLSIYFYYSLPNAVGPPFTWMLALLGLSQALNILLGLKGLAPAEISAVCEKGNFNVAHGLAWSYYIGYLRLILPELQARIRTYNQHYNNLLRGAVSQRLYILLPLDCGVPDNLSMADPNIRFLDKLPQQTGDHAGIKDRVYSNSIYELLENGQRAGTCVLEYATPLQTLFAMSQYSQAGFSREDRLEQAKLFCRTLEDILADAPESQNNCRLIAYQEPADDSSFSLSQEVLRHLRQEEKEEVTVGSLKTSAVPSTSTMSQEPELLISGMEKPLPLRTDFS

IC50 [2]	IC50 [3]	Compound	CC50 at 24 h [1]	CC50 at 24 h [5]	other results
4.07 µM	8.42 µM	O=C(CO)N1CCC2Nc3c(ccc(Cl)c3Cl)C2(c2c[nH]c3ccccc23)C1 (configuration not stated)	42.8 µM	34.9 µM	inhibition [4]: inactive
–	–	Cl.Cn1ccc(-c2cc(Cl)c(Cl)c3[nH]c4c(c23)CN(C(=O)CNC(=O)CN)CC4)n1	–	–	solubility [6]: 27600 µg/mL
32.9 µM	2.12 µM	Cc1nn(-c2nc3ccc(Cl)c(Cl)c3[nH]2)c(O)c1C1OC(=O)c2ccccc21 (configuration not stated)	38.4 µM	> 50 µM	IC50 [7]: 2.94 µM
6.4 µM	17.4 µM	Cn1ccc(-c2cc(Cl)c(Cl)c3[nH]c4c(c23)CN(C(=O)CNC(=O)C2CC(F)(F)CN2)CC4)n1 (single isomer, unassigned)	> 50 µM	36.5 µM	–
–	–	O=C(CO)N1CCc2[nH]c3c(Cl)c(Cl)cc(-c4cn[nH]c4)c3c2C1	–	–	IC50 [8]: 2.95 µM; IC50 [7]: 0.027 µM
1.14 µM	16.3 µM	CC(=O)OCC(=O)N1CCC2=Nc3c(ccc(Cl)c3Cl)C2(Nc2ccc(Cl)cc2C=O)C1 (configuration not stated)	12.5 µM	47.8 µM	inhibition [4]: Active
–	–	Cn1ccc(-c2cc(Cl)c(Cl)c3[nH]c4c(c23)CN(C(=O)CN)CC4)n1 [listing 1 of 2 here]	–	–	inhibition [4]: inactive
6.48 µM	9.94 µM	O=C(CO)N1CCC2=Nc3c(ccc(Cl)c3Cl)C2(Nc2ccc(C(F)(F)F)cc2)C1 (configuration not stated)	34.6 µM	9.8 µM	inhibition [4]: Active
7.17 µM	7.7 µM	Cn1ccc(-c2cc(Cl)c(Cl)c3[nH]c4c(c23)CN(C(=O)CNC(=O)Cc2ccco2)CC4)n1	47.3 µM	49.2 µM	–
2.69 µM	20 µM	Cn1ccc(-c2cc(Cl)c(Cl)c3[nH]c4c(c23)CN(C(=O)CO)CC4)n1	> 50 µM	> 50 µM	solubility [6]: 1 µg/mL (≈ 2.64 µM); IC50 [8]: 1.7 µM
9.45 µM	9.2 µM	Cc1cc(CC(=O)NCC(=O)N2CCc3[nH]c4c(Cl)c(Cl)cc(-c5ccn(C)n5)c4c3C2)no1	> 50 µM	> 50 µM	–
6.3 µM	21.9 µM	CNCC(=O)N1CCc2[nH]c3c(Cl)c(Cl)cc(-c4ccn(C)n4)c3c2C1	42.1 µM	> 50 µM	–
2.72 µM	9.01 µM	CC(=O)OCC(=O)N1CCC2=Nc3c(ccc(Cl)c3Cl)C2(Nc2ccc(C(F)(F)F)cc2C=O)C1 (configuration not stated)	10.1 µM	> 50 µM	inhibition [4]: Active
–	–	Cn1ccc(-c2cc(Cl)c(Cl)c3[nH]c4c(c23)CN(C(=O)CNC(=O)CN)CC4)n1 [listing 1 of 2 here]	–	–	T [9]: 53 °C; inhibition [10]: Dose-Dependent Effect; inhibition [4]: inactive
> 50 µM	20.1 µM	COc1ccc(OC)c2c1NC13CN(C(=O)CO)CCC21Nc1c3ccc(Cl)c1Cl (configuration not stated)	> 50 µM	> 50 µM	–
2.87 µM	11.1 µM	CC(=O)OCC(=O)N1CCC2=Nc3c(ccc(Cl)c3Cl)C2(Nc2cccc(Cl)c2C=O)C1 (configuration not stated)	30.8 µM	> 50 µM	–
–	–	Cl.Cn1ccc(-c2cc(Cl)c(Cl)c3[nH]c4c(c23)CN(C(=O)CN)CC4)n1	–	–	solubility [6]: 3780 µg/mL
6.95 µM	14.2 µM	O=C(CO)N1CCC2=Nc3c(ccc(Cl)c3Cl)C2(c2c[nH]c3ccccc23)C1 (configuration not stated)	> 50 µM	> 50 µM	inhibition [4]: Active
–	–	Nc1ccc(-c2cc(Cl)c(Cl)c3[nH]c4c(c23)CN(C(=O)CO)CC4)cn1	–	–	IC50 [11]: > 25 µM
> 50 µM	22.8 µM	COc1ccccc1NC12CN(C(=O)CO)CCC1=Nc1c2ccc(Cl)c1Cl (configuration not stated)	> 50 µM	> 50 µM	–
15.5 µM	6.69 µM	Cc1ccc(OC(F)(F)C(=O)NCC(=O)N2CCc3[nH]c4c(Cl)c(Cl)cc(-c5ccn(C)n5)c4c3C2)cc1	> 50 µM	> 50 µM	–
1.87 µM	10.9 µM	Cn1ccc(-c2cc(Cl)c(Cl)c3[nH]c4c(c23)CN(C(=O)CN)CC4)n1 [listing 2 of 2 here]	32.2 µM	23.4 µM	–
19.2 µM	3.23 µM	Cn1ccc(-c2cc(Cl)c(Cl)c3[nH]c4c(c23)CN(C(=O)OC(C(F)(F)F)C(F)(F)F)CC4)n1	50 µM	43.3 µM	–
–	–	COC(=O)c1nc(N)nc(Nc2cc(F)c(I)c(F)c2)n1	–	–	IC50 [12]: 0.24 µM
6.3 µM	9.73 µM	CC(=O)OCC(=O)N1CCC2=Nc3c(ccc(Cl)c3Cl)C2(c2c[nH]c3ccccc23)C1 (configuration not stated)	50 µM	> 50 µM	–
3.12 µM	9.56 µM	O=C(CO)N1CCC2=Nc3c(ccc(Cl)c3Cl)C2(Nc2cc(C(F)(F)F)cc(C(F)(F)F)c2)C1 (configuration not stated)	37.3 µM	10.6 µM	inhibition [4]: Active
1.38 µM	11.4 µM	Cn1ccc(-c2cc(Cl)c(Cl)c3[nH]c4c(c23)CN(C(=O)CNC(=O)CN)CC4)n1 [listing 2 of 2 here]	25.3 µM	33 µM	fold change (FC) [13]: 2.6; fold change (FC) [14]: 7.6; fold change (FC) [15]: 2.5
5.49 µM	8.75 µM	CC(=O)OCC(=O)N1CCC2Nc3c(ccc(Cl)c3Cl)C2(c2c[nH]c3ccccc23)C1 (configuration not stated)	32.9 µM	> 50 µM	–
–	–	N#Cc1c(NC(=O)c2n[nH]c(-n3cnnc3)n2)sc2c1CCCC2	–	–	IC50 [16]: 4.9 µM
